Like-named read-outs stand apart in the source and are kept apart here.
Columns and labels:
[1] = mice; cited from earlier work
PPAR-α [2] = assay: Protein immuno-blotting of PPAR-α expression in HepG2 cells; format: cell-based, human; details: puerarin 1-100 μM, 24 hours, Western blotting
Procedure: FIG. 2. Expression of PPAR-α in HepG2 cells. Cells were incubated in puerarin (1-100 μM) for 24 hrs. Whole cell lysate were collected and PPAR-α expression was probed using anti-PPAR-α (Santa Cruz, Calif.) in Western blotting. Each lane was loaded with 50 μg protein from cell lysate. Expression of actin was also probed to ensure protein loading.
Cell Cultures HepG2 cells was purchased from American Type Culture Collection (Manassas, Va.). They were maintained in DMEM containing 10% heat-inactivated fetal bovine serum and 1% penicillin/streptomycin in tissue culture dishes incubated in 95% air/5% CO2, at 37° C. The media were changed 2 times per week until the cells were confluent.
Protein immuno-blotting of PPAR-α. HepG2 cells were collected in RIPA buffer (150 mM NaCl, 1% Triton X-100, 1% sodium deoxycholate, 0.1% sodium dodecyl sulfate, 50 mM Tris-HCl, 2 mM EDTA, pH 7.5) with protease inhibitors (Mini-Complete protease inhibitor cocktail tablets (Roche Diagnostics, Mannheim, Germany)] after incubated in puerarin (1-100 μM) for 24 hours. The protein content of the cell lysate was quantified by using a protein assay kit (Bio-Rad Lab, Hercules Calif.). Protein (50 μg) from the whole cell lysate was loaded in each lane of a polyacrylamide (10%) gel, eletrophoresed and blotted to a polyvinylidene difluoride (PVDF) membrane. […]

[3] = Body weights of SHRSP rats treated by gavage for 5 months; format: in vivo
Procedure: FIG. 3. Effects of puerarin on the body weights of rats. The rats were fed on a normal chow diet for 5 months starting when they were 4 weeks old. The rats were treated by gavage either with vehicle (normal saline) or puerarin (250 mg/Kg/day in a single dose in normal saline). The data were compared statistically by using two-way ANOVA with n=8 in each group.
Spontaneously hypertensive stroke-prone (SHRSP) male rats were fed on a normal chow diet for 5 months starting when they were 4 weeks old. The rats were treated by gavage either with vehicle (normal saline) or puerarin (250 mg/Kg/day in a single dose in normal saline). Their blood pressures and body weights were monitor everyday for 5 months.

[4] = cited from earlier work
[5] = rats, oral intake; cited from earlier work
PPAR-α [6] = target: T1, PPAR-α (Homo sapiens, UniProt Q07869); details: cited from earlier work
T1 sequence (Q07869 1-468): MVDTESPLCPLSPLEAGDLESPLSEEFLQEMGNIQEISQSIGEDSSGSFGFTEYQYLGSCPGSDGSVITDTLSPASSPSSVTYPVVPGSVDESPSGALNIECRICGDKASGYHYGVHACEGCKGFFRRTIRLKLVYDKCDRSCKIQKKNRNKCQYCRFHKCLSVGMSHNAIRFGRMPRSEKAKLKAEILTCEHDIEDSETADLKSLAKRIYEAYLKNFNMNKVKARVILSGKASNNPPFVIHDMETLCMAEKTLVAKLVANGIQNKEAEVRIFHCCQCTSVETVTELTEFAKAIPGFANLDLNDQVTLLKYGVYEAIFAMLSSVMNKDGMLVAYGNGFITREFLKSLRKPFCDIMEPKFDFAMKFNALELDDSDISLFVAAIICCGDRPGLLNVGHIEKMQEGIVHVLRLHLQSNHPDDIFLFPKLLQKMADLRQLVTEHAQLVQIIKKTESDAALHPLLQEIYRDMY

For `O=c1c(-c2ccc(O)cc2)coc2cc(O[C@@H]3O[C@H](CO)[C@@H](O)[C@H](O)[C@H]3O)ccc12` [daidzin, reference compound], which “effect on glucose tolerance” value [1] is on record?
The value was “impairs glucose tolerance”.

Which PPAR-α expression (PPAR-α [2]) does the source give for `O=c1c(-c2ccc(O)cc2)coc2c([C@@H]3O[C@H](CO)[C@@H](O)[C@H](O)[C@H]3O)c(O)ccc12` [puerarin, 4H-1-Benzopyran-4-one, 8-β-D-glucopyranosyl-7-hydroxy-3-(4-hydroxyphenyl)] here?
The PPAR-α expression was “upregulated”.

And the “body weights, treatment group vs control group (two-way ANOVA)” value ([3]; 250 mg/Kg/day by gavage, 5-month period, n=8, P<0.001)?
The value was “significantly different”.

What about the toxicity ([3]; 250 mg/Kg/day orally, 5 months, rats) of the same compound?
The toxicity was “no apparent toxicity”.

What about the “body weight less than the control rats in average” value ([3]; 250 mg/Kg/day orally, over 5 months period, SHRSP male rats, normal chow diet) of the same compound?
The value was 13%.

What about the Effects ([4]; AMI patients (Xiao et al., 2004)) of the same compound?
The Effects was “↓ the infarction size, ↓free fatty acids”.

What about the Effects ([4]; Angina patients (Yang et al., 1990)) of the same compound?
Its Effects is “Anti-angina, reducing both systolic”.

What about the Effects ([4]; CHD patients (Xie et al., 2003)) of the same compound?
The Effects was “Simulate the late phase of ischemic”.

And the Effects ([4]; Chronic heart failure patients (Duan et al., 2000))?
Its Effects is “↓ oxidized-LDL, improve heart”.

What about the Effects ([4]; Coronary heart disease (CHD) patients (Shi et al., 2002)) of the same compound?
Its Effects is “Improve insulin resistance, and insulin”.

And the Effects ([4]; Diabetic retinopathy patients (Ren et al., 2000))?
The Effects was “↓ blood viscosity, improve”.

What about the Effects ([4]; Unstable angina (UA) patients (Luo and Zheng, 2001)) of the same compound?
The Effects was “↓ platelet granule membrane protein”.

And the “effect on glucose tolerance” value [1]?
The value was “improves glucose tolerance”.

And the “absorption from the intestine” value [5]?
The value was “rapidly absorbed”.

And the “metabolism in the blood” value [5]?
The value was “mostly remains unmetabolized”.

For `O=c1c(-c2ccc(O)cc2)coc2cc(O)ccc12` [daidzein], which “activation of PPAR-α” value (PPAR-α [6]) is on record?
The value was “activate PPAR-α”.

Reference: patent publication US20090099099A1, “Isoflavone Glycosides as Peroxisome Proliferator-Activated Receptor-alpha Modulator” (priority 2007, published 2009)
